# Data: US20230226198A1, “Artemisinin Derivatives” (DA ZEN THERANOSTICS, INC., priority 2019, published 2023)
# Read-outs that look alike come from different tables or passages of the source.
# Key:
# Type in all cases: cell-based
# [1] = tested on: 22Rv1 cells; assay: MTT cell viability / IC50 assay, 22Rv1; settings: Homo sapiens, 22Rv1, 48 h
# Protocol: (§1) Cell culture: In the following examples, unless otherwise specified, all cell lines are purchased from American Type Culture Collection and cultured in American Type Culture Collection (ATCC)-recommended media, with fetal bovine serum (FBS) to a final concentration of 10% and 1× penicillin/streptomycin at 37° C. with 5% CO2 in a cell culture incubator, unless otherwise specified. Unless otherwise specified, culture is 2D. Where culture is 3D, low attachment plates are used, with the same media. C4-2B (ATCC® CRL-3315™, human prostate cancer cells of epithelial morphology) parental cell line and drug-resistant cells derived therefrom) are cultured in RPMI-1640 with 10% FBS. MDVR cells (an Enzalutamide-resistant variety of C4-2B prostate cancer cells formed as described below) are cultured as indicated for the parental C4-2B cells. Caki-1 cells (human clear cell renal cell carcinoma cells) are cultured in ATCC-formulated McCoy's 5a Medium Modified (ATCC Catalog No. 30-2007) with 10% FBS. […]
# (§2) Each of the cell lines is treated either with a THAD (e.g. DZ-DHA-ether, MI-148-bis-DHA), or for comparison, with the DHA mono-ester “DZ-DHA”; alternatively/additionally, DZ1 and/or unconjugated DHA may serve as comparants. […] The absorbance density of the supernatant is read on a 96-well microplate reader at wavelength 595 nm. […]
# [2] = tested on: MDVR cells (Enzalutamide-resistant C4-2B prostate cancer cells); assay: MTT cell viability / IC50 assay, MDVR; settings: Homo sapiens
# Protocol: Cell culture: In the following examples, unless otherwise specified, all cell lines are purchased from American Type Culture Collection and cultured in American Type Culture Collection (ATCC)-recommended media, with fetal bovine serum (FBS) to a final concentration of 10% and 1× penicillin/streptomycin at 37° C. with 5% CO2 in a cell culture incubator, unless otherwise specified. Unless otherwise specified, culture is 2D. Where culture is 3D, low attachment plates are used, with the same media. C4-2B (ATCC® CRL-3315™, human prostate cancer cells of epithelial morphology) parental cell line and drug-resistant cells derived therefrom) are cultured in RPMI-1640 with 10% FBS. MDVR cells (an Enzalutamide-resistant variety of C4-2B prostate cancer cells formed as described below) are cultured as indicated for the parental C4-2B cells. Caki-1 cells (human clear cell renal cell carcinoma cells) are cultured in ATCC-formulated McCoy's 5a Medium Modified (ATCC Catalog No. 30-2007) with 10% FBS. PC3 cells (ATCC® CRL-1435™, a human prostate cancer cell line of epithelial morphology initiated from a bone metastasis of a grade IV prostatic adenocarcinoma) are cultured in F-12K with 10% FBS. 22RV1 Prostate Cancer (PC) cells (ATCC® CRL-2505™, a human prostate carcinoma cell line of epithelial morphology) are cultured in RPMI-1640 with 10% FBS. DU145 cells (ATCC® HTB-81™, a human cell line derived from a prostate-originating brain metastase, not detectably hormone sensitive, not expressing prostate antigen; forms adenocarcinoma grade II in nude mice) are cultured in ATCC-formulated Eagle's Minimum Essential Medium (EMEM, Catalog No. 30-2003). H446 cells (ATCC® HTB-171™, a human small cell carcinoma SC lung cancer (SCLC) cell line derived from a metastatic site) are cultured in RPMI-1640 with 10% FBS. H358 cells (ATCC® CRL-5807™, a human non-small cell lung cancer (NSCLC) cell line that expresses protein and RNA of SP-A, the major lung surfactant associated protein, and produces tumors in athymic nude mice) are cultured in RPMI-1640 Medium with 10% FBS. BxPC3 cells (ATCC® CRL-1687™, an adenocarcinoma-derived pancreatic cancer cell line that expresses pancreas cancer specific antigen and carcinoembryonic antigen and forms tumors in nude mice) are cultured in RPMI-1640 with 10% FBS.
# Resistant prostate cancer cell lines MDVR and AbiR: MDVR cells are Enzalutamide-resistant cells, AbiR are Abiraterone acetate resistant cells, formed from parental C4-2B prostate cancer cells as follows. A cell assay is performed exposing cells cultured as described above to various drugs indicated below for 72 hours. Parental C4-2B cells are C4-2B non-resistant cells not previously exposed to cancer drugs. Drug-resistant C4-2B cells are created by prolonged exposure to the relevant drug, i.e. Enzalutamide for MDVR, and Abiraterone acetate for AbiR cells, at initially sub-lethal and gradually increasing concentrations until resistance is achieved.
# Example 1: A cell assay is performed exposing cells cultured as described above to various drugs indicated below for 24 hours unless otherwise indicated. Each of the cell lines is treated either with a THAD (e.g. DZ-DHA-ether, MI-148-bis-DHA), or for comparison, with the DHA mono-ester “DZ-DHA”; alternatively/additionally, DZ1 and/or unconjugated DHA may serve as comparants. For each cell line, the IC50 is determined for each drug in concentrations from 0 to 100 μM. […] In the controls (not shown in the figures), the cells are exposed to DMSO (vehicle) for a final concentration that equals the highest concentration of the drug tested, to a maximum concentration less than 0.1% v/v. 4 hours before culture end/SDS addition, 10 μL MTT (3-(4,5-Dimethyl-2-thiazolyl)-2,5-diphenyl-2H-tetrazolium bromide, Sigma-Aldrich) is added to wells containing the cells. At the end of culture, 100 μl 10% SDS is added and then the plate containing the cells is placed in a 37° C. cell culture incubator for 8 hours. […]
# [3] = tested on: H358 cells; assay: MTT cell viability / IC50 assay, H358; settings: Homo sapiens, NCI-H358, 48 h
# Protocol: as §1, §2
Compound,IC50 [1] [µM],"IC50 ([2]; ENZ-resistant C4-2B cells (MDVR), unit inferred, read-out: IC50 (FIG. 2B description)) [µM]","IC50 ([2]; MDVR, 24 hours, relative IC50, read-out: IC50) [µM]","IC50 ([2]; MDVR, 48 h, read-out: IC50) [µM]",IC50 [3] [µM]
C[C@@H]1CC[C@H]2[C@@H](C)C(OC(=O)CCCCCN3/C(=C/C=C4\CCCC(/C=C/C5=[N+](CCCCS(=O)(=O)[O-])c6ccccc6C5(C)C)=C4Cl)C(C)(C)c4ccccc43)O[C@@H]3OC4(C)CC[C@@H]1[C@]32OO4 (stereo in doubt) [DZ3a],0.9,3.8,3.8 to 5.9,5.9,2.6
"C[C@H]1[C@@H](O)O[C@@H]2O[C@@]3(C)CC[C@H]4[C@H](C)CC[C@@H]1[C@@]24OO3 [DHA, dihydroartemisinin]",9.4,–,–,390,7.32
